According to paper PMC8113459, “Selective inhibition of cullin 3 neddylation through covalent targeting DCN1 protects mice from acetaminophen-induced liver toxicity” (Nature Communications, 2021):
Where “and” joins values, the source holds several entries; their conditions need not be identical. Identical values can stand only once.

Legend:
DCN1 [1] = target: T1, DCN1 (Homo sapiens, UniProt Q96GG9); assay: Intact-protein mass spectrometric analysis, Method B (DCN1); assay type: binding; details: 3 h incubation, 100 nM protein
Protocol: Method B: Recombinant DCN1 or DCN3 protein (100 nM in 25 mM Tris 7.5, 200 mM NaCl, 1 mM DTT buffer) was incubated with 1.2-fold excess of the DCN1 inhibitors at 37 °C for 10 min, 1 h, or 3 h. Following incubation, the protein was analyzed by LC–MS (Agilent Q-TOF 6545) under the following conditions: fragmentor voltage, 300 V; skimmer voltage, 75 V; nozzle voltage, 100 V; sheath gas temperature, 350 °C; and drying gas temperature, 325 °C. MassHunter Qualitative Analysis software (Agilent) was used to analyze the data. Intact protein masses were obtained using the maximum entropy deconvolution algorithm. The mass spectrometry data in Supplementary Figs. 14–17 were generated by Method B.

DCN1 [2] = target: T1, DCN1; assay: Competitive FP binding assay
Protocol: Competitive FP binding assay was performed as previously described. The IC50 and Ki values of DI-1548 and DI-1548DD were determined in competitive binding experiments. Mixtures of preincubated protein/probe complex solution in the assay buffer (196 μL) and compounds in DMSO (4 μL) were added into assay plates which were incubated at room temperature for 30 min with gentle shaking. The concentrations of DCN1 protein and fluorescent probe were 50 and 5 nM, respectively. […] FP values in millipolarization units were measured using the Infinite M-1000 plate reader (Tecan U.S., Research Triangle Park, NC) in Microfluor 1 96-well, black, round-bottom plates (Thermo Fisher Scientific, Waltham, MA) at an excitation wavelength of 485 nm and an emission wavelength of 530 nm. IC50 values were determined by nonlinear regression fitting of the competition curves using the dose–response inhibition equation (four parameters, variable slopes) included in the Prism/GraphPad software. Ki values were calculated using methods described previously.

neddylation of cullin 3 = assay: Western blot, cullin 3 neddylation in cells of different tissue types (U2OS, THLE2, MDA-MB-231, KYSE70, HCT116); assay type: cell-based, human
Protocol: (§1) Western blotting was performed as described previously. Treated cells were lysed by RIPA buffer supplemented with protease inhibitor. The expression level of indicated proteins was examined by immunoblotting analysis and GAPDH was used as the loading control. Antibodies were purchased commercially: cullin 1 (sc-17775, 1:500 dilution) and cullin 2 (sc-166506, 1:500 dilution) from Santa Cruz Biotech (Santa Cruz, CA); cullin 4A (PA5-14542, 1:1000 dilution), cullin 4B (PA5-50647, 1:1000 dilution), and DCN3 (DCUN1D3, PA5-44000, 1:1000 dilution) from Thermo Fisher Scientific (Wayne, MI); cullin 3 (2759, 1:1000), NRF2 (12721, 1:1000 dilution), HO-1 (70081, 1:1000 dilution), and Bim (2819, 1:1000 dilution) from Cell Signaling Technology (Boston, MA); DCN1 (GWB-E3D700, 1:1000 dilution) from GenWay Biotech (San Diego, CA); and cullin 5 (A302-173A, 1:500 dilution) from Bethyl Labs (Montgomery, TX). Results are representative of two independent experiments.

NRF2 protein = assay: Western blot, NRF2 protein accumulation in cells; assay type: cell-based, human; details: 300 nM
Protocol: as §1

[3] = Cell viability assay (WST-8), U2OS; assay type: cell-based, human; details: human, U2OS cells, replicates, read-out: cell viability relative to control
Protocol: (§2) Cell viability assay was performed as previously described. The effect of DCN1 inhibitors on cell growth was evaluated by a WST-8 [2-(2-methoxy-4-nitrophenyl)-3-(4-nitrophenyl)-5-(2,4-disulfophenyl)-2H-tetrazolium, monosodium salt assay (Dojindo Molecular Technologies, Inc). Cells (2000–3000 cells in each well) were seeded in 96-well tissue culture plates in medium (100 μL) and treated with serial dilution of DCN1 inhibitors for 3 days. At the end of incubation, WST-8 dye (20 μL) was added to each well and incubated for 1–3 h, then the absorbance was measured in a microplate reader (Molecular Devices) at 450 nm. Cell growth inhibition was evaluated as the ratio of the absorbance of the sample to that of the control. The values were inserted into Prism software, and the curves and the EC50 values were produced by Prism software.

U2OS cells = assay: Cell viability assay (WST-8), U2OS; assay type: cell-based, human; details: replicates
Protocol: as §2

[4] = Cell viability assay (WST-8), MDA-MB-231; assay type: cell-based, human; details: human, MDA-MB-231 cells, replicates, read-out: cell viability relative to control
Protocol: as §2

MDA-MB-231 cells = assay: Cell viability assay (WST-8), MDA-MB-231; assay type: cell-based, human; details: for cell viability relative to control: replicates
Protocol: as §2

[5] = Cell viability assay (WST-8), HCT116; assay type: cell-based, human; details: human, HCT116 cells, replicates, read-out: cell viability relative to control
Protocol: as §2

HCT116 cells = assay: Cell viability assay (WST-8), HCT116; assay type: cell-based, human; details: for cell viability relative to control: replicates
Protocol: as §2

[6] = Cell viability assay (WST-8), KYSE70; assay type: cell-based, human; details: human, KYSE70 cells, replicates, read-out: cell viability relative to control
Protocol: as §2

KYSE70 cells = assay: Cell viability assay (WST-8), KYSE70; assay type: cell-based, human; details: for cell viability relative to control: replicates
Protocol: as §2

T1 sequence (Q96GG9 whole entry, the tested form may be a part): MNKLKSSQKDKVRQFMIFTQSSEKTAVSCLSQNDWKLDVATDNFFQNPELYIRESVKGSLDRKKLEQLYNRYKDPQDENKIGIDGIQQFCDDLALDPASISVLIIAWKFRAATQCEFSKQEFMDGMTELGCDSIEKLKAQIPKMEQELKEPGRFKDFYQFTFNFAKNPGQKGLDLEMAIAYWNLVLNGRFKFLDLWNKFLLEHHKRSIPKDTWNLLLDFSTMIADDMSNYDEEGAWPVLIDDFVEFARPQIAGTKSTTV

In the case of `C=C(CN1CCOCC1)C(=O)NC[C@H](NC(=O)[C@@H](Cc1nc2ccc(C(C)C)cc2s1)NC(=O)CC)C1CCCCC1` [DI-1548DD], the “covalent complex formation with DCN1” value (DCN1 [1]) is reported as “fails to form any detectable complex”, the “times less potent than DI-1548 in binding to DCN1” value (DCN1 [2]) is reported as over 1000 times and the “FP signal of the competitive binding curve” value (“FP signal” for short) (DCN1 [2]; Concentration (nM) 0.169351, duplicates) is reported as 48.4 and 48. The “FP signal” value (DCN1 [2]; Concentration (nM) 0.508053, duplicates) was 47 and 44.7, the “FP signal” value (DCN1 [2]; Concentration (nM) 1.52416, duplicates) was 42.8 and 45.5 and the “FP signal” value (DCN1 [2]; Concentration (nM) 4.57247, duplicates) was 46.4 and 45.6. For the same compound, the “FP signal” value (DCN1 [2]; Concentration (nM) 13.7174, duplicates) was 45.7, the “FP signal” value (DCN1 [2]; Concentration (nM) 41.1523, duplicates) was 43.9 and 44.9 and the “FP signal” value (DCN1 [2]; Concentration (nM) 123.457, duplicates) was 43.5 and 44.2. For the same compound, the “FP signal” value (DCN1 [2]; Concentration (nM) 370.37, duplicates) was 42.9 and 41.1, the “FP signal” value (DCN1 [2]; Concentration (nM) 1111.11, duplicates) was 36.2 and 35.7 and the “FP signal” value (DCN1 [2]; Concentration (nM) 3333.33, duplicates) was 28.3 and 29.7. The “FP signal” value (DCN1 [2]; Concentration (nM) 10000, duplicates) was 20.5 and 22.6, the IC50 (DCN1 [2]; DCN1 50 nM, probe 5 nM, 30 min) was 2.88 µM and the “times less potent than DI-1548 and DI-1859, respectively, on cullin 3 neddylation” value (neddylation of cullin 3) was over 300 times. For the same compound, the “effect on the neddylation of cullin 3” value (neddylation of cullin 3; 100–300 nM) was “no significant effect”, the “accumulation of NRF2 protein” value (NRF2 protein) was “no obvious accumulation” and the viability at 72 h ([3]; conc 10, 72 h) was 90.3%. For the same compound, the viability at 72 h ([3]; conc 1000, 72 h) was 87.9%, the “cell viability relative to control” value (U2OS cells; conc 10, 72 h) was 109.342 and 93.2895 and 98.1579 and the “cell viability relative to control” value (U2OS cells; conc 30, 72 h) was 118.158 and 95.5263 and 92.6316. The “cell viability relative to control” value (U2OS cells; conc 100, 72 h) was 108.684 and 93.421 and 101.974, the “cell viability relative to control” value (U2OS cells; conc 300, 72 h) was 103.684 and 90.921 and 92.2368 and the “cell viability relative to control” value (U2OS cells; conc 1000, 72 h) was 95.1316 and 97.1053 and 98.2895. The viability at 72 h ([4]; conc 10, 72 h) was 93.6%, the viability at 72 h ([4]; conc 30, 72 h) was 108% and the viability at 72 h ([4]; conc 100, 72 h) was 104%. The viability at 72 h ([4]; conc 300, 72 h) was 104%, the EC50 (MDA-MB-231 cells; Homo sapiens, MDA-MB-231, 72 h, cell line assigned from panel order, read-out: EC50, cell growth inhibition) was over 1 µM and the “cell viability relative to control” value (MDA-MB-231 cells; conc 10, 72 h) was 111.264 and 113.448. The “cell viability relative to control” value (MDA-MB-231 cells; conc 30, 72 h) was 102.295 and 109.77, the “cell viability relative to control” value (MDA-MB-231 cells; conc 100, 72 h) was 112.459 and 97.8161 and the “cell viability relative to control” value (MDA-MB-231 cells; conc 300, 72 h) was 97.7869 and 103.793. For the same compound, the “cell viability relative to control” value (MDA-MB-231 cells; conc 1000, 72 h) was 105.329 and 127.049 and 101.954, the viability at 72 h ([5]; conc 3, 72 h) was 96.9% and the viability at 72 h ([5]; conc 10, 72 h) was 107%. For the same compound, the viability at 72 h ([5]; conc 100, 72 h) was 87.8%, the viability at 72 h ([5]; conc 1000, 72 h) was 79.7% and the EC50 (HCT116 cells; Homo sapiens, HCT-116, 72 h, cell line assigned from panel order, read-out: EC50, cell growth inhibition) was over 1 µM. For the same compound, the “cell viability relative to control” value (HCT116 cells; conc 3, 72 h) was 101.869 and 103.551, the “cell viability relative to control” value (HCT116 cells; conc 10, 72 h) was 94.2056 and 90 and the “cell viability relative to control” value (HCT116 cells; conc 30, 72 h) was 80.7477 and 101.215 and 108.939. The “cell viability relative to control” value (HCT116 cells; conc 100, 72 h) was 96.6355 and 107.727, the “cell viability relative to control” value (HCT116 cells; conc 300, 72 h) was 79.5327 and 97.5701 and 109.546 and the “cell viability relative to control” value (HCT116 cells; conc 1000, 72 h) was 96.8224 and 90.3738. For the same compound, the viability at 72 h ([6]; conc 10, 72 h) was 98.7%, the viability at 72 h ([6]; conc 300, 72 h) was 88% and the EC50 (KYSE70 cells; Homo sapiens, KYSE-70, 72 h, cell line assigned from panel order, read-out: EC50, cell growth inhibition) was over 1 µM. For the same compound, the “cell viability relative to control” value (KYSE70 cells; conc 10, 72 h) was 101.942 and 101.216, the “cell viability relative to control” value (KYSE70 cells; conc 30, 72 h) was 111.396 and 109.174 and 90.4505 and the “cell viability relative to control” value (KYSE70 cells; conc 100, 72 h) was 115.736 and 126.65 and 80.7614. For the same compound, the “cell viability relative to control” value (KYSE70 cells; conc 300, 72 h) was 86.0914 and 84.7716 and the “cell viability relative to control” value (KYSE70 cells; conc 1000, 72 h) was 63.3503 and 88.731 and 70.4569.
